System: not given
Test: not given
Conditions: not given
Nc1ncc(C#Cc2ccc(Cl)cc2)c(OC2CCC(=O)CC2)n1 [Example 41, 2-amino-5-(4-chlorophenylethynyl)-4-(4-oxocyclohexyloxy) pyrimidine] gave a melting point of 168 to 172 °C.
Molecule Nc1ncc(C#Cc2ccc(Cl)cc2)c(N[C@H]2CC[C@H](O)CC2)n1 [Example 12, 2-amino-5-(4-chlorophenylethynyl)-4-(trans-4-hydroxycyclohexylamino)pyrimidine] has a melting point of 215 to 218 °C.
For O[C@H]1CC[C@H](Nc2ncncc2C#Cc2ccc(Cl)cc2)CC1 (hydrate or solvate) [Example 4, 5-(4-chlorophenylethynyl)-4-(trans-4-hydroxycyclohexylamino) pyrimidine], the melting point was 151 to 155 °C.
Nc1ncc(C#Cc2ccccc2)c(NCCOCCO)n1 [Example 19, 2-amino-4-[2-(2-hydroxyethoxy)ethylamino]-5-phenylethynyl pyrimidine] showed a melting point of 128 to 129 °C.
For Nc1ncc(C#Cc2ccc(Cl)cc2)c(NCCOCCO)n1 [Example 14, 2-amino-5-(4-chlorophenylethynyl)-4-[2-(2-hydroxyethoxy)ethylamino]pyrimidine], the melting point was 176 to 180 °C.
For Cl.Oc1ccc(Nc2ncncc2C#Cc2ccccc2)cc1, the melting point was 223 to 225 °C (dec.).
With COc1ccc(C#Cc2cnc(N)nc2Nc2ccc(O)cc2)cc1.Cl the melting point was 220 to 230 °C (dec.).

System: PC12 cells
Test: Choline acetyltransferase (ChAT) assay in NGF-treated PC12 cells
Type: cell-based, rat
Conditions: 3 days incubation with test compound, versus NGF alone
Method: Cultured PC12 cells (rat adrenal pheochromocytoma from ATCC) have receptors for NGF. Responses include promotion of neurite outgrowth and elevation of choline acetyltransferase (ChAT) (L. A. Greene and A. S. Tischler, Cell Neurobiol., 3, 373 (1982)).
The following assay is modified from that described in H L White and P W Scates, Neurochem. Res., 16, 63 (1991). PC12 cells were cultured at 37° C. in RPMI supplemented with HEPES buffer, pH7.5 (to 10 mM), fetal bovine serum, horse serum, glutamine, penicillin, streptomycin and non-essential amino acids. Cultures were split 1:3 every 3 to 4 days. Exponentially dividing cells were plated into fresh medium on collagen-coated 12-well plastic dishes (10^5 cells/well). After allowing one day for cell attachment, the medium was replaced with low serum medium, with or without test compounds with each condition in triplicate. The medium may contain up to 0.2% ethanol, which was used as a solvent for most compounds tested. Cells were examined for morphological changes using an Olympus IMT-2 inverted research microscope. After 3 days incubation with test compounds, medium was removed and replaced with 0.2 ml of lysis and ChAT assay mixture. The plates were incubated at 37° C. for 2 hours and then placed into a freezer at −20° C.
Compounds are judged NGF-like in this primary screen if they (1) increase the activity of ChAT, (2) enhance NGF-stimulated neurite outgrowth or (3) potentiate or appear additive with the action of NGF itself.
The assay mixture contained 100 mM phosphate, pH7.4, 0.1% NP40, 150 mM NaCl, 1.5 mM choline, 10 mM EDTA, 0.1 mM eserine, 0.1 mM acetyl-coenzyme A and about 0.5 uCi (40–70 Ci/mol) [14C]acetyl-coenzyme A in each ml of mixture. Thawed and lysed cell reaction mixtures were diluted to 1 ml with water and transferred to 7 ml scintillation vials containing 5 ml of extraction/scintillation fluid solution (50 mg triphenyl borate, 50 mg PPO, 20 mg POPOP per 100 ml of 20% acetonitrile/80% toluene) and vortexed for 10 seconds. After all 20 diluted well contents were transferred and mixed, all the vials were vortexed again for 30 seconds, rotated for about 2 hours, and then vortexed once more. The vials were centrifuged at 3000 rpm (rmax.=16 cm) for 15 minutes and then counted in a Beckman LS6500 scintillation counter. Background counts from reaction mixtures with extracts from non-stimulated cells (no NGF and no test compound) were subtracted from reaction product counts before comparisons of ChAT activities were made.
The following data were obtained for representative compounds of the present invention which (1) increased the activity of choline acetyltransferase ChAT), (2) enhanced NGF-stimulated neurite outgrowth and/or (3) potentiated or appeared additive with the action of NGF itself. The concentration at which the test compound doubled the ChAT activity over the activity with NGF alone (no test compound) was recorded as the EC2x value.
In the case of Nc1ncc(C#Cc2ccc(Cl)cc2)c(N[C@H]2CC[C@H](O)CC2)n1 [Example 12, 2-amino-5-(4-chlorophenylethynyl)-4-(trans-4-hydroxycyclohexylamino)pyrimidine], the “EC2× (concentration at which the test compound doubled the ChAT activity over the activity with NGF alone)” value is reported as 0.2 µM.
In the case of CCc1ccc(C#Cc2cnc(N)nc2N[C@H]2CC[C@H](O)CC2)cc1.Cl [Example 26, 2-amino-5-(4-ethylphenylethynyl)-4-(4-trans-hydroxycyclohexylamino) pyrimidine hydrochloride], the “EC2× (concentration at which the test compound doubled the ChAT activity over the activity with NGF alone)” value is reported as 0.2 µM.
In the case of Nc1ncc(C#Cc2ccc(Cl)cc2)c(N[C@H]2CC[C@@H](O)CC2)n1 [Example 23, 2-amino-5-(4-chlorophenylethynyl)-4-(4-cis-hydroxycyclohexylamino)pyrimidine], the “EC2× (concentration at which the test compound doubled the ChAT activity over the activity with NGF alone)” value is reported as 0.3 µM.
With Nc1ncc(C#Cc2ccc(Cl)cc2)c(NCCOCCO)n1 [Example 14, 2-amino-5-(4-chlorophenylethynyl)-4-[2-(2-hydroxyethoxy)ethylamino]pyrimidine] the “EC2× (concentration at which the test compound doubled the ChAT activity over the activity with NGF alone)” value was 0.5 µM.
For O[C@H]1CC[C@H](Nc2ncncc2C#Cc2ccc(Cl)cc2)CC1 [Example 4, 5-(4-chlorophenylethynyl)-4-(trans-4-hydroxycyclohexylamino) pyrimidine], the “EC2× (concentration at which the test compound doubled the ChAT activity over the activity with NGF alone)” value was 0.2 µM.
In the case of Nc1ncc(C#Cc2ccc(Cl)cc2)c(NCCO)n1 [Example 13, 2-amino-5-(4-chlorophenylethynyl)-4-(2-hyroxyethylamino) pyrimidine], the “EC2× (concentration at which the test compound doubled the ChAT activity over the activity with NGF alone)” value is reported as 0.3 µM.
In the case of Nc1ncc(C#Cc2ccccc2)c(N[C@H]2CC[C@H](O)CC2)n1 [Example 9, 2-amino-4-(trans-4-hydroxycyclohexylamino)-5-phenylethynylpyrimidine], the “EC2× (concentration at which the test compound doubled the ChAT activity over the activity with NGF alone)” value is reported as 0.1 µM.
